Assay results from ChEMBL document CHEMBL1143875, “Synthesis and structure-activity relationships of thiadiazole-derivatives as potent and orally active peroxisome proliferator-activated receptors alpha/delta dual agonists” (Bioorg Med Chem, 2008).
The source made the active and inactive calls. No cut-off for these calls is given here.

Columns and labels:
Mus musculus [1] = test: Reduction in triglyceride level in po dosed hApoA1 transgenic mouse after 7 days; format: functional, organism-based
[2] = Cmax in Beagle dog at 10 mg/kg administered as single dose on day 7; format: ADME, organism-based, Canis lupus familiaris; parameters: dose 10 mg/kg; conditions: in vivo
[3] = AUC in ob/ob C57BL/6J-leptin deficient obese mouse at 1 mg/kg administered as multiple dose after 11 days; format: ADME, organism-based; parameters: dose 1 mg/kg; conditions: plasma
[4] = Half life in ob/ob C57BL/6J-leptin deficient obese mouse at 0.3 mg/kg administered as multiple dose after 11 days; format: ADME, organism-based; parameters: dose 0.3 mg/kg; conditions: in vivo
Canis familiaris = test: Effect on aspartate aminotransferase level in Beagle dog serum at 0.3 to 3 mg/kg, po/day after 7 days; format: functional, organism-based; conditions: Canis lupus familiaris
Mus musculus [5] = test: Decrease in non esterified free fatty acid level i in po dosed hApoA1 transgenic mouse after 7 days; format: functional, organism-based
[6] = Half life in ob/ob C57BL/6J-leptin deficient obese mouse at 3 mg/kg administered as multiple dose after 11 days; format: ADME, organism-based; parameters: dose 3 mg/kg; conditions: in vivo
[7] = AUC in Sprague-Dawley rat at 0.3 mg/kg administered as multiple dose after 8 days; format: ADME, organism-based; parameters: dose 0.3 mg/kg; conditions: plasma
[8] = Half life in Beagle dog at 3 mg/kg administered as multiple dose after 7 days; format: ADME, organism-based, Canis lupus familiaris; parameters: dose 3 mg/kg; conditions: in vivo
[9] = Half life in Sprague-Dawley rat at 3 mg/kg administered as multiple dose after 8 days; format: ADME, organism-based; parameters: dose 3 mg/kg; conditions: in vivo
[10] = target: T1, Peroxisome proliferator-activated receptor alpha (Homo sapiens, UniProt Q07869); test: Agonist activity at human PPARalpha-Gal4 in HEK293 cells by luciferase reporter assay; format: functional, cell-based
T1 sequence (Q07869 whole entry): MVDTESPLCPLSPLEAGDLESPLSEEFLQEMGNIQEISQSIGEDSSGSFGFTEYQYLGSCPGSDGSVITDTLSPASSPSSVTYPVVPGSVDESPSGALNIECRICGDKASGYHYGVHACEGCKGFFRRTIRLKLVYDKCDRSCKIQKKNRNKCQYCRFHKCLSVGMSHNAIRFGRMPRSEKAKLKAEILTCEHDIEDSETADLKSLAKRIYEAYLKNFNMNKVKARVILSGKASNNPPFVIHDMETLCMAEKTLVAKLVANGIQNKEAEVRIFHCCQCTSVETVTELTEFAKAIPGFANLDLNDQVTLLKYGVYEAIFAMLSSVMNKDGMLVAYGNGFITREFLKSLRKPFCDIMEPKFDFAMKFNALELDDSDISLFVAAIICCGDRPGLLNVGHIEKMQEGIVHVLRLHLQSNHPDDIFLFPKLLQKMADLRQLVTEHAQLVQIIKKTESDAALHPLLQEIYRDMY

Cc1cc(SCc2nc(-c3ccc(Cl)c(Cl)c3)ns2)ccc1OC(C)(C)C(=O)O
Activity (Mus musculus [1]): Active
Cmax [2]: 10100 ng/mL
AUC at 264 h [3]: 47600 ng·h/mL
half-life [4]: 5 h
Activity (Canis familiaris): inactive
Activity (Mus musculus [5]): Active
half-life [6]: 6.7 h
AUC at 192 h [7]: 2400 ng·h/mL
half-life [8]: 6 h
half-life [9]: 7.1 h
EC50 [10]: 100 nM
